Measurements as given in patent publication US6545006B1, “Process for obtaining L-dihydroorotic acid and use thereof” (Aventis Pharma Deutschland GmbH, priority 1997, dated 2003).

Columns and labels:
[1] = A77 1726 concentrations in serum from rats treated with leflunomide; format: in vivo, rat; conditions: for A77 1726 concentrations in serum, Mean: leflunomide 10 mg/kg p.o. twice daily; for A77 1726 serum concentration: 3 hours after oral drug administration
Description: Animals: Male Wistar-Lewis rats (Mollegaard Breading Center Ltd. Ejby, DK) with a body weight of 160-200 g.
Adjuvant Arthritis: The disease was induced by injecting 0.1 ml Freund's adjuvant (6 mg Mycobacterium smegmatis suspended in 1 ml heavy, white paraffin oil (Merck, Darmstadt) into the root of Wistar-Lewis rat's tails. Pathological symptoms generally appear between 10 and 14 days after disease induction.
Drug Treatment: Drugs were suspended in 1% carboxymethylcellulose (COMC). […] (see table 12). At time point 0 h, 3 animals from both diseased and non-diseased groups were sacrificed to determine base-line levels. An additional 3 healthy and 3 diseased animals were treated with placebo (COMC alone) for 5 days.
Sampling: Three animals per group were sacrificed at each sampling time point. Serum and splenocytes taken at 3 h, 7 h, 27 h, 51 h, 75 h, and 99 h (see table 12). With the exception of the 7 h value, samples were taken three hours after the last drug application. The 7 h value was taken one hour after the second dosing. Samples from the placebo treated animals were taken at the 0 h (n=3) and 99 h (n=3) time points
Blood collected by heart puncture was stored for 30 min at 4° C. and then centrifuged for 10 min at 3000 rpm. Serum was separated and stored in Eppendorf-caps at −20° C. (3). Before HPLC analysis, the frozen serum was thawed and, in order to remove the proteins, 200 μl serum were added to a Microcon filter (model 10,code 42407, Amicon) and centrifuged for 30 min at 13 000 rpm.
The tubes were then mixed in a Vortex mixer and centrifuged at 2500 rpm (room temperature) for 10 minutes. For HPLC analysis, the supernatant (400 μl) was transferred to a vial and water (400 μl) added and mixed. The HPLC conditions were as follows: The hardware consisted of a TSP P2000 pump, a TSP AS1000 auto-sampler, a TSP SP4270 integrator, and a TSP UV100 UV-detector. Detection was at 292 nm wavelength. The mobile phase consisted of 650 ml methanol (CHROMASOLV), 2,42 g tetrabutylammoniumbromide, and 350 ml 0,05 M Ammoniumacetate. The flow rate was 0.5 ml/min A CHROMPACK Spherisorb ODS-2 10 cm column with a 1 cm reversed phase (R2) guard column was used. 100 μl was injected into the column and the running time was 7 min.

[2] = molecular target: T1, DHO-DH (Mus musculus, UniProt O35435); assay: Intracellular DHO-concentrations in A20.2.J cells incubated with A77 1726; format: cell-based; conditions: for DHO-Concentration (μg/ml ± SD) Experiment 1 (E10 B) / DHO-Concentration (μg/ml ± SD) Experiment 2 (E14): 5 μM A77 1726, 24 hours, n=3
T1 construct: endogenous in cells; host or cells: A20.2.J cells
T1 sequence (O35435 whole entry): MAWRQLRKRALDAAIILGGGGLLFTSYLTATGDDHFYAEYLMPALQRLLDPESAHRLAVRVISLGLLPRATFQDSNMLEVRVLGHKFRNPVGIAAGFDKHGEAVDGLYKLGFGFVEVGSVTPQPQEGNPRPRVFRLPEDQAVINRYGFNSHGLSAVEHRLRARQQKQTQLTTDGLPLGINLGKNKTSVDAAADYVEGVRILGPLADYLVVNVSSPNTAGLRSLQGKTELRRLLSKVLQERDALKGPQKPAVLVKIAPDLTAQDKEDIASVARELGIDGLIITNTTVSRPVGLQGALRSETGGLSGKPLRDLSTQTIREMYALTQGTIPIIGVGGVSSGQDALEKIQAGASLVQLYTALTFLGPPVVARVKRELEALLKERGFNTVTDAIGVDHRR
Description: Cell Culture: A20.2.J cells were cultured in serum free medium (37° C., 5% CO2) in an expansion culture at logarithmic cell growth. […] The percentage of dead cells were <8% (3).
Prepared cells were resuspended in a defined medium volume and cell density. Depending on expected DHO content, between 1-50 million cells were removed, pelleted (5 min, 350×g) and supernatant discarded. Cell were lysed, by adding 500 μl 1.2 M HCIO4. The lysates were transferred into 2 ml Eppendorf safe-lock-caps, and the protein precipitated by 2 min high speed centrifugation. The acidified lysates were completely removed, transferred into glass vials and, after addition of 500 μl chloroform, thoroughly mixed by 2 min vortexing. Cellular lipids were extracted following 10 min cold centrifugation (1502×g; 10° C.). The purified supernatants were collected in 2 ml Eppendorf caps for storage at −20° C. until high pressure liquid chromatography (HPLC) determination.
The chromatographic separation was performed as described in example 1.The range of the conductive detector was set to 10 μS. The analysis was performed at room temperature. The mobile phase was composed of 100 mM NaOH (A) and water (B). With that system the following gradient was produced:
(* all values extrapolated to 10×10^6 cells) (n=2).
The data are given as μg/ml DHO±SD extrapolated to ten million cells (0-4 h=n=2, 7 h=n=4).

A77 1726 concentrations in serum, Mean ([1]; Adjuvant Diseased Rats, 3 h): 26.33 µg/mL
A77 1726 concentrations in serum, Mean ([1]; Adjuvant Diseased Rats, 7 h): 42.3 µg/mL
A77 1726 concentrations in serum, Mean ([1]; Adjuvant Diseased Rats, 27 h): 19.7 µg/mL
A77 1726 concentrations in serum, Mean ([1]; Adjuvant Diseased Rats, 51 h): 9.2 µg/mL
A77 1726 concentrations in serum, Mean ([1]; Adjuvant Diseased Rats, 75 h): 9.9 µg/mL
A77 1726 concentrations in serum, Mean ([1]; Adjuvant Diseased Rats, 99 h): 12.2 µg/mL
A77 1726 concentrations in serum, Mean ([1]; Non-Diseased Rats, 3 h): 30.7 µg/mL
A77 1726 concentrations in serum, Mean ([1]; Non-Diseased Rats, 7 h): 47.9 µg/mL
A77 1726 concentrations in serum, Mean ([1]; Non-Diseased Rats, 27 h): 9.6 µg/mL
A77 1726 concentrations in serum, Mean ([1]; Non-Diseased Rats, 51 h): 7400 µg/mL
A77 1726 concentrations in serum, Mean ([1]; Non-Diseased Rats, 99 h): 12.7 µg/mL
A77 1726 serum concentration ([1]; adjuvant diseased rats): about 26 μg/ml
time to reach the 7 to 12 μg/ml A77 1726 serum concentrations ([1]; diseased animals): 51 h
time to reach the 7 to 12 μg/ml A77 1726 serum concentrations ([1]; non-diseased rats): 27 h
A77 1726 serum concentration ([1]; non-diseased rats): ~31 µg/mL
time of peak A77 1726 serum concentration ([1]; one hour after the second dosing): 7 h
DHO-Concentration (μg/ml ± SD) Experiment 1 (E10 B) ([2]; 1 ×10^6 cells extracted): 14.08 ± 2.40 µg/mL
DHO-Concentration (μg/ml ± SD) Experiment 2 (E14) ([2]; 1 ×10^6 cells extracted): 11.75 ± 0.23 µg/mL
Concentration DHO (μg/ml) mean ± SD ([2]; 1 × 10^6 cells/ml, 1 h, 5 μM A77 1726, extrapolated to 10×10^6 cells, n=2): 6.25 ± 0.42 µg/mL
Concentration DHO (μg/ml) mean ± SD ([2]; 1 × 10^6 cells/ml, 4 h, 5 μM A77 1726, extrapolated to 10×10^6 cells, n=2): 33.06 ± 2.26 µg/mL
Concentration DHO (μg/ml) mean ± SD ([2]; 1 × 10^6 cells/ml, 7 h, 5 μM A77 1726, extrapolated to 10×10^6 cells, n=2): 60.07 ± 0.01 µg/mL
incubation time after which detectable amounts of DHO could be determined ([2]; 1×10^6 cells/ml, independent of the drug concentration): 1 h
incubation time with the greatest amount of DHO determined ([2]; 1×10^6 cells/ml, saturation afterwards): 6 h
DHO-Concentration (μg/ml ± SD) Experiment 1 (E10 B) ([2]; 2 ×10^6 cells extracted): 19.51 ± 6.47 µg/mL
DHO-Concentration (μg/ml ± SD) Experiment 2 (E14) ([2]; 2 ×10^6 cells extracted): 28.27 ± 0.79 µg/mL
Concentration DHO (μg/ml) mean ± SD ([2]; 2 × 10^6 cells/ml, 1 h, 5 μM A77 1726, extrapolated to 10×10^6 cells, n=2): 5.47 ± 0.10 µg/mL
Concentration DHO (μg/ml) mean ± SD ([2]; 2 × 10^6 cells/ml, 4 h, 5 μM A77 1726, extrapolated to 10×10^6 cells, n=2): 26.36 ± 0.42 µg/mL
Concentration DHO (μg/ml) mean ± SD ([2]; 2 × 10^6 cells/ml, 7 h, 5 μM A77 1726, extrapolated to 10×10^6 cells, n=2): 42.31 ± 1.07 µg/mL
Concentration DHO (μg/ml) mean ± SD ([2]; 3 × 10^6 cells/ml, 1 h, 5 μM A77 1726, extrapolated to 10×10^6 cells, n=2): 5.63 ± 0.19 µg/mL
Concentration DHO (μg/ml) mean ± SD ([2]; 3 × 10^6 cells/ml, 4 h, 5 μM A77 1726, extrapolated to 10×10^6 cells, n=2): 19.39 ± 1.87 µg/mL
Concentration DHO (μg/ml) mean ± SD ([2]; 3 × 10^6 cells/ml, 7 h, 5 μM A77 1726, extrapolated to 10×10^6 cells, n=2): 28.79 ± 0.34 µg/mL
DHO-Concentration (μg/ml ± SD) Experiment 1 (E10 B) ([2]; 4 ×10^6 cells extracted): 53.58 ± 3.50 µg/mL
DHO-Concentration (μg/ml ± SD) Experiment 2 (E14) ([2]; 4 ×10^6 cells extracted): 57.20 ± 2.76 µg/mL
DHO-Concentration (μg/ml ± SD) Experiment 1 (E10 B) ([2]; 6 ×10^6 cells extracted): 73.01 ± 1.49 µg/mL
DHO-Concentration (μg/ml ± SD) Experiment 2 (E14) ([2]; 6 ×10^6 cells extracted): 85.38 ± 2.33 µg/mL
DHO-Concentration (μg/ml ± SD) Experiment 1 (E10 B) ([2]; 8 ×10^6 cells extracted): 99.89 ± 5.96 µg/mL
DHO-Concentration (μg/ml ± SD) Experiment 2 (E14) ([2]; 8 ×10^6 cells extracted): 107.02 ± 3.47 µg/mL
DHO-Concentration (μg/ml ± SD) Experiment 1 (E10 B) ([2]; 10 ×10^6 cells extracted): 113.37 ± 4.24 µg/mL
DHO-Concentration (μg/ml ± SD) Experiment 2 (E14) ([2]; 10 ×10^6 cells extracted): 128.73 ± 1.95 µg/mL
Concentration DHO (μg/ml) mean ± SD ([2]; A77 1726 5 μM, 0 h, one million cells/ml, extrapolated to ten million cells): 2.73 ± 0.10 µg/mL
Concentration DHO (μg/ml) mean ± SD ([2]; A77 1726 5 μM, 1 h, one million cells/ml, extrapolated to ten million cells): 9.20 ± 0.09 µg/mL
Concentration DHO (μg/ml) mean ± SD ([2]; A77 1726 5 μM, 2 h, one million cells/ml, extrapolated to ten million cells): 24.03 ± 1.15 µg/mL
Concentration DHO (μg/ml) mean ± SD ([2]; A77 1726 5 μM, 4 h, one million cells/ml, extrapolated to ten million cells): 59.48 ± 0.72 µg/mL
Concentration DHO (μg/ml) mean ± SD ([2]; A77 1726 5 μM, 7 h, one million cells/ml, extrapolated to ten million cells): 87.54 ± 1.58 µg/mL
Concentration DHO (μg/ml) mean ± SD ([2]; A77 1726 10 μM, 0 h, one million cells/ml, extrapolated to ten million cells): 2.73 ± 0.10 µg/mL
Concentration DHO (μg/ml) mean ± SD ([2]; A77 1726 10 μM, 1 h, one million cells/ml, extrapolated to ten million cells): 8.5 ± 0.39 µg/mL
Concentration DHO (μg/ml) mean ± SD ([2]; A77 1726 10 μM, 2 h, one million cells/ml, extrapolated to ten million cells): 20.74 ± 1.43 µg/mL
Concentration DHO (μg/ml) mean ± SD ([2]; A77 1726 10 μM, 4 h, one million cells/ml, extrapolated to ten million cells): 58.65 ± 2.06 µg/mL
Concentration DHO (μg/ml) mean ± SD ([2]; A77 1726 10 μM, 7 h, one million cells/ml, extrapolated to ten million cells): 82.65 ± 4.50 µg/mL
Concentration DHO (μg/ml) mean ± SD ([2]; A77 1726 25 μM, 0 h, one million cells/ml, extrapolated to ten million cells): 2.73 ± 0.08 µg/mL
Concentration DHO (μg/ml) mean ± SD ([2]; A77 1726 25 μM, 1 h, one million cells/ml, extrapolated to ten million cells): 15.05 ± 0.26 µg/mL
Concentration DHO (μg/ml) mean ± SD ([2]; A77 1726 25 μM, 2 h, one million cells/ml, extrapolated to ten million cells): 26.06 ± 0.20 µg/mL
Concentration DHO (μg/ml) mean ± SD ([2]; A77 1726 25 μM, 4 h, one million cells/ml, extrapolated to ten million cells): 50.21 ± 1.54 µg/mL
Concentration DHO (μg/ml) mean ± SD ([2]; A77 1726 25 μM, 7 h, one million cells/ml, extrapolated to ten million cells): 114.89 ± 3.61 µg/mL
accumulation of L-DHO in A20.2.J tumor cells ([2]; incubation with A77 1726): rapid accumulation of L-DHO
SMILES: CC(O)=C(C#N)C(=O)Nc1ccc(C(F)(F)F)cc1 [A77 1726, N-(4-trifluoromethyl)-2-cyano-3-hydroxy-crotonamide]
